Experimental data taken from US7317125B2 (Hoffman-La Roche Inc., priority 2005, dated 2008).

target: T1, DGAT1 (Homo sapiens, UniProt O75907); assay: DGAT CHOK1 Cell Assay; assay type: cell-based; settings: CHOK1 cells transfected with DGAT1, 14C palmitic acid, 1 hour at 37° C., triglyceride by TLC
T1 construct: expressed in transfected cells; host or cells: CHOK1
T1 sequence (O75907 1-488): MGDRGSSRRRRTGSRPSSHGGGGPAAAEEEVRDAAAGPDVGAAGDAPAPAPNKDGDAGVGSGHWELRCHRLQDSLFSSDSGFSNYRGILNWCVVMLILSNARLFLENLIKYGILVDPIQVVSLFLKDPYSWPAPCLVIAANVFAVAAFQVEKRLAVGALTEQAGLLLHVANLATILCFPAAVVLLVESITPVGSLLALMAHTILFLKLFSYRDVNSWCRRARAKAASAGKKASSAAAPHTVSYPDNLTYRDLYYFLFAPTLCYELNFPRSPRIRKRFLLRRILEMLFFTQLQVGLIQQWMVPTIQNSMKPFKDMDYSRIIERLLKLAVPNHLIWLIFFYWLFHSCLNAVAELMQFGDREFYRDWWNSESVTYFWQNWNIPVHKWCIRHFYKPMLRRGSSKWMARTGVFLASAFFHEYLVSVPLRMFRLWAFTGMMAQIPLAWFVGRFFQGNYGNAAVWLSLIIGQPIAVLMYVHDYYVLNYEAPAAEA
From the text: Materials for the assay were: petroleum ether (J. T. Baker #9268-22); diethyl ether (Aldrich #30995-8); acetic acid; 1,2-dioleoyl-3-palmitoyl-glycerol (Sigma D-1782); ^[…] Palmitic Acid (56.0 mCi/mmol PerkinElmer Life Sciences # NEC 075H); DMEM/F12 (Gibco #11330-032); fetal bovine serum; L-Glutamine; G418/ml media; DMEM High Glucose (Gibco #11995-065); BSA Fraction V Fatty Acid Free (Roche #100 377); 20×°cm silica gel 60 glass plates (EM Science Plates #5721/7).
CHOK1/DGAT cell culture medium was prepared with DMEM/F12 (Gibco #11330-032), […], and 20 ul G418/ml media. 1,2-dioleoyl-3-palmitoyl-glycerol was prepared by dissolving 10 mg into 1 ml chloroform and stored at −20° C. in 100 μl aliquots. Test compounds were prepared as 10 mM stock solutions in DMSO and store at −20° C. before use. Test dilutions were prepared by five fold serial dilutions over final concentrations.
CHOK1 cells transfected with DGAT1 were diluted in 6 well plates at 2.5×10^5 cells per well and cultured overnight. Cells were then washed twice with PBS. Test compound solutions (10 μl/2 ml media aliquots) in DMEM High Glucose with 0.01% BSA (fatty acid free) were added to cell culture plates at 800 μl per well. ^14C Palmitic acid (0.5 μCi, 5 μl) was added to each well. The plates were incubated for 1 hour at 37° C. After the incubation period, the plates were placed on ice, cells were scraped into media and transferred to microfuge tubes. 400 μl chloroform:methanol (2:1) was added to each tube. Each tube was briefly vortexed by hand, then mechanically vortexed for 10 minutes. Each tube was then centrifuged at 14,000 RPM for 10 minutes at 4° C. and the bottom layer removed and transferred to a new microfuge tube.
Extracted samples were spotted onto TLC plates at 20 μl per lane. The TLC plates were eluted with a solvent mixture of petroleum ether, diethyl ether and acetic acid (80:20:1) and air dried. Trigylceride (TG) spots were visualized by placing in an iodine chamber for several minutes. 1 μl of ^14C palmitic acid (diluted 1:10 in 100% EtOH) was spotted on the TG standard lane (at TG level) as a reference. The TLC plates were wrapped in plastic wrap and placed in a phosphorimager cassette for scanning.
The EC50 values for those compounds tested in this Example were generated using an Excel template, the results of which are shown in Table II: […]

Row | EC50 [nM] | SMILES
1 | 8300 | CC(C)N(NC(=O)c1ccccc1)C(=O)COc1ccc(F)cc1-c1ccc(F)cc1 [Example 1, benzoic acid N′-[2-(5,4′-difluoro-biphenyl-2-yloxy)-acetyl]-N′-isopropyl-hydrazide]
2 | 3100 | CC(C)N(NC(=O)c1ccccc1)C(=O)COc1ccc(F)cc1-c1ccccc1Cl [Example 2, benzoic acid N′-[2-(2′-chloro-5-fluoro-biphenyl-2-yloxy)-acetyl]-N′-isopropyl-hydrazide]
3 | 1020 | Cc1ccccc1-c1cc(F)ccc1OCC(=O)N(NC(=O)c1ccccc1)C(C)C [Example 3, benzoic acid N′-[2-(5-fluoro-2′-methyl-biphenyl-2-yloxy)-acetyl]-N′-isopropyl-hydrazide]
4 | 1810 | COc1ccccc1-c1cc(F)ccc1OCC(=O)N(NC(=O)c1ccccc1)C(C)C [Example 4, benzoic acid N′-[2-(5-fluoro-2′-methoxy-biphenyl-2-yloxy)-acetyl]-N′-isopropyl-hydrazide]
5 | 2210 | CC(C)N(NC(=O)c1ccccc1)C(=O)COc1ccc(F)cc1-c1ccccc1F [Example 5, benzoic acid N′-[2-(5,2′-difluoro-biphenyl-2-yloxy)-acetyl]-N′-isopropyl-hydrazide]
6 | 3780 | CC(C)N(NC(=O)c1ccccc1)C(=O)COc1ccc(F)cc1-c1cccc(F)c1 [Example 9, benzoic acid N′-[2-(5,3′-difluoro-biphenyl-2-yloxy)-acetyl]-N′-isopropyl-hydrazide]
7 | 910 | CC(C)N(NC(=O)c1ccccc1)C(=O)COc1ccc(F)cc1-c1cccc(Cl)c1 [Example 10]
8 | 1850 | CC(C)N(NC(=O)c1ccccc1)C(=O)COc1ccc(F)cc1-c1ccccc1 [Example 11, benzoic acid N′-[2-(5-fluoro-biphenyl-2-yloxy)-acetyl]-N′-isopropyl-hydrazide]
9 | 1010 | CC(C)c1cccc(-c2cc(F)ccc2OCC(=O)N(NC(=O)c2ccccc2)C(C)C)c1 [Example 12, benzoic acid N′-[2-(5-fluoro-3′-isopropyl-biphenyl-2-yloxy)-acetyl]-N′-isopropyl-hydrazide]
10 | 310 | CSc1ccccc1-c1cc(F)ccc1OCC(=O)N(NC(=O)c1ccccc1)C(C)C [Example 13, benzoic acid N′-[2-(5-fluoro-2′-methylsylfanyl-biphenyl-2-yloxy)-acetyl]-N′-isopropyl-hydrazide]
11 | 230 | CC(C)N(NC(=O)c1ccccc1)C(=O)COc1ccc(F)cc1-c1ccccc1[N+](=O)[O-] [Example 14, benzoic acid N′-[2-(5-fluoro-2′-nitro-biphenyl-2-yloxy)-acetyl]-N′-isopropyl-hydrazide]
12 | 4860 | CC(C)Oc1ccccc1-c1cc(F)ccc1OCC(=O)N(NC(=O)c1ccccc1)C(C)C [Example 15, benzoic acid N′-[2-(5-fluoro-2′-isopropoxy-biphenyl-2-yloxy)-acetyl]-N′-isopropyl-hydrazide]
13 | 216 | CCc1ccccc1-c1cc(F)ccc1OCC(=O)N(NC(=O)c1ccccc1)C(C)C [Example 16, benzoic acid N′-[2-(2′-ethyl-5-fluoro-biphenyl-2-yloxy)-acetyl]-N′-isopropyl-hydrazide]
14 | 2170 | CCCOc1ccccc1-c1cc(F)ccc1OCC(=O)N(NC(=O)c1ccccc1)C(C)C [Example 17, benzoic acid N′-[2-(5-fluoro-2′-propoxy-biphenyl-2-yloxy)-acetyl]-N′-isopropyl-hydrazide]
15 | 2690 | COC(=O)c1ccccc1-c1cc(F)ccc1OCC(=O)N(NC(=O)c1ccccc1)C(C)C [Example 18, benzoic acid N′-[2-(2′-methoxycarbonyl-5-fluoro-biphenyl-2-yloxy)-acetyl]-N′-isopropyl-hydrazide]
16 | 1300 | Cc1cccc(-c2cc(F)ccc2OCC(=O)N(NC(=O)c2ccccc2)C(C)C)c1C [Example 19, benzoic acid N′-[2-(2′,3′-dimethyl-5-fluoro-biphenyl-2-yloxy)-acetyl]-N′-isopropyl-hydrazide]
17 | 328 | CC(C)N(NC(=O)c1ccccc1)C(=O)COc1ccc(F)cc1-c1ccccc1OC(F)(F)F [Example 20, benzoic acid N′-[2-(5-fluoro-2′-trifluoromethoxy-biphenyl-2-yloxy)-acetyl]-N′-isopropyl-hydrazide]
18 | 1340 | CCOc1ccccc1-c1cc(F)ccc1OCC(=O)N(NC(=O)c1ccccc1)C(C)C [Example 21, benzoic acid N′-[2-(2′-ethoxy-5-fluoro-biphenyl-2-yloxy)-acetyl]-N′-isopropyl-hydrazide]
19 | 380 | CC(C)c1ccccc1-c1cc(F)ccc1OCC(=O)N(NC(=O)c1ccccc1)C(C)C [Example 22, benzoic acid N′-[2-(5-fluoro-2′-isopropyl-biphenyl-2-yloxy)-acetyl]-N′-isopropyl-hydrazide]
20 | 2930 | CC(C)N(NC(=O)c1ccccc1)C(=O)COc1ccc(F)cc1-c1ccc(F)cc1F [Example 24, benzoic acid N′-[2-(5,2′,4′-trifluoro-biphenyl-2-yloxy)-acetyl]-N′-isopropyl-hydrazide]
21 | 1370 | Cc1cc(F)ccc1-c1cc(F)ccc1OCC(=O)N(NC(=O)c1ccccc1)C(C)C [Example 25, benzoic acid N′-[2-(5,4′-difluoro-4′-methyl-biphenyl-2-yloxy)-acetyl]-N′-isopropyl-hydrazide]
22 | 880 | CCc1ccccc1-c1cc(C)ccc1OCC(=O)N(NC(=O)c1ccccc1)C(C)C [Example 26, benzoic acid N′-[2-(2′-ethyl-5-methyl-biphenyl-2-yloxy)-acetyl]-N′-isopropyl-hydrazide]
23 | 2100 | CCc1ccccc1-c1cc(F)c(F)cc1OCC(=O)N(NC(=O)c1ccccc1)C(C)C [Example 27, benzoic acid N′-[2-(2′-ethyl-4,5-difluoro-biphenyl-2-yloxy)-acetyl]-N′-isopropyl-hydrazide]
24 | 296 | CCc1ccccc1-c1cc(F)cc(F)c1OCC(=O)N(NC(=O)c1ccccc1)C(C)C [Example 28, benzoic acid N′-[2-(2′-ethyl-3,5-difluoro-biphenyl-2-yloxy)-acetyl]-N′-isopropyl-hydrazide]
25 | 1370 | CCc1ccccc1-c1cc(C#N)ccc1OCC(=O)N(NC(=O)c1ccccc1)C(C)C [Example 29, benzoic acid N′-[2-(5-cyano-2′-ethyl-biphenyl-2-yloxy)-acetyl]-N′-isopropyl-hydrazide]
26 | 1830 | CCc1ccccc1-c1cc(F)ccc1OCC(=O)N(NC(=O)c1ccc(OCCOC)cc1)C(C)C [Example 30, 4-(2-methoxy-ethoxy)-benzoic acid N′-[2-(5-fluoro-2′-ethyl-biphenyl-2-yloxy)-acetyl]-N′-isopropyl hydrazide]
27 | 776 | Cc1ccc(OCC(=O)N(NC(=O)c2ccccc2)C(C)C)c(-c2ccccc2OC(F)(F)F)c1 [Example 31]
28 | 938 | CC(C)N(NC(=O)c1ccccc1)C(=O)COc1cc(F)c(F)cc1-c1ccccc1OC(F)(F)F [Example 32, benzoic acid N′-[2-(4,5-difluoro-2′-trifluoromethoxy-biphenyl-2-yloxy)-acetyl]-N′-isopropyl hydrazide]
29 | 356 | CC(C)N(NC(=O)c1ccccc1)C(=O)COc1c(F)cc(F)cc1-c1ccccc1OC(F)(F)F [Example 33, benzoic acid N′-[2-(3,5-difluoro-2′-trifluoromethoxy-biphenyl-2-yloxy)-acetyl]-N′-isopropyl hydrazide]
